Results reported in paper PMC8347481, “Germacranolides from Carpesium divaricatum: Some New Data on Cytotoxic and Anti-Inflammatory Activity” (Molecules, 2021).
Like-named read-outs stand apart in the source and are kept apart here.

Experiments:
[1] = tested on: cancer cells; parameters: method as in PMID 30127485, PMID 22908556; details: cancer cells in vitro; cited from earlier work
[2] = tested on: NF-κB; details: cited from earlier work
[3] = tested on: SAOS-2; assay: MTT viability test, osteosarcoma cells with p53 deletion; details: Homo sapiens
Procedure: (§6) Two osteosarcoma cell lines: U-2 OS (with wild-type p53 status) and SAOS-2 (p53 null cell line) were used to evaluate cytotoxic activity of 1 and 2. Doxorubicin was employed as a reference drug. Viability of the cells treated by 1 or 2 (concentration range 0.014–50.0 µM) for 24 and 48 h was assessed by thiazolyl blue tetrazolium bromide (MTT) test.
(§7) Human osteosarcoma cell lines U-2 OS (ATCC HTB-96; wild-type p53 status) and SAOS-2 (ATCC HTB-85; p53 deletion) were cultured in McCoy’s 5A medium containing L-glutamine and supplemented with 10% FBS at 37 °C and in a humidified atmosphere with 5% CO2. […] After that, working solutions were diluted with culture media to the final 1× concentrations (0.014–50 μM).
(§8) For the MTT assay, the osteosarcoma cells suspended in the nutrient medium were seeded into 96-well microtiter plates (density 1.0 × 10^4 per well) and preincubated for 24 h (37 °C, 5% CO2). Subsequently, the cells were treated with 1 or 2 at different concentrations (0.014–50 μM) and further cultivated for another 24 or 48 h. After that, MTT was added for 1 h at the final concentration of 500 ng/mL. The culture medium was removed and the formazan crystals were dissolved in isopropanol containing 40 mM HCl. Absorbance was measured using Tecan microplate reader at 570 nm with the reference wavelength of 650 nm. […] Data were analyzed using Origin software.

[4] = tested on: human polymorphonuclear leukocytes (PMNs); assay: Cytotoxicity to neutrophils, propidium iodide staining and flow cytometry; format: cell-based; details: at 2.5 µM or lower concentrations, 24 h incubation
Procedure: Cytotoxicity of 1 and 2 to human polymorphonuclear leukocytes (PMNs) was evaluated using propidium iodide (PI) staining and flow cytometry (FACS) analysis. The compounds were nontoxic in PMNs at 2.5 µM or lower concentrations (Figure 4).
Cytotoxicity was assessed by a standard flow cytometric probe using propidium iodide (PI) staining. After 24 h of incubation in the absence or presence of the tested germacranolide (at concentrations of 0.5, 1.0, 2.5 and 5.0 μM), the neutrophils (3.5 × 10^5) were harvested and centrifuged (1500 r.p.m., 10 min, 4 °C), washed once with cold PBS and resuspended in 400 μL of PBS. A 5 μL aliquot of PI solution (50 μg/mL) was added to the cell suspension. After 15 min of incubation with PI at room temperature, cells were analyzed by BD FACSCalibur flow cytometer (BD Biosciences, San Jose, CA, USA), and 10,000 events were recorded per sample.

[5] = tested on: ROS release from f-MLP-stimulated human neutrophils; assay: ROS production, luminol-dependent chemiluminescence; format: cell-based; details: f-MLP stimulation, concentration range 1–2.5 μM
Procedure: Activation of PMNs, either at a site of inflammation or induced in vitro by proinflammatory agents, results in an oxidative burst in these cells. The phenomenon is characterized by intense ROS generation and liberation of proteolytic enzymes from azurophilic granules. An effect of the sesquiterpene lactones 1 and 2 on ROS production in PMNs was assessed in response to N-formyl-Met-Leu-Phe (f-MLP) stimulation.
ROS production was measured using luminol-dependent chemiluminescence test. A 70 μL aliquot of neutrophil suspension (3.5 × 10^5) in (Ca^2+)-free HBSS buffer, 50 μL of the tested compound solution and 50 μL of luminol (100 μM) were added to a well in a 96-well plate. ROS production was initiated by the addition of f-MLP (30 μL of 0.1 μg/mL solution) to obtain a total volume of 200 μL per well. Chemiluminescence changes were measured for 40 min, at 2 min intervals, in a microplate reader (37 °C). The background chemiluminescence produced by nonstimulated cells was also determined. The percentage of inhibition was calculated by comparison to the stimulated control without the tested compound, at the maximum luminescence.

[6] = tested on: IL-8 secretion by LPS-stimulated human neutrophils; assay: IL-8 release, ELISA; format: cell-based; details: 0.5, 1.0 and 2.5 µM, 24 h after LPS stimulation
Procedure: (§1) In response to stimulation with proinflammatory agents, e.g., LPS or f-MLP, human neutrophils excrete an array of cytokines and chemokines, including TNF-α, IL-1β, IL-8 and CCL2 [29, 30]. In the present study, neutrophils were pretreated with the examined compounds (1 or 2) before their priming with LPS. Levels of IL-1β, IL-8, TNF-α and CCL2 were determined in the culture medium, using ELISA, 24 h after LPS stimulation.
(§2) Neutrophils (2 × 10^6) were cultured in 24-well plates in RPMI 1640 medium with 10% FBS, 10 mM HEPES and 2 mM L-glutamine, in the presence or absence of LPS (100 ng/mL) and in the absence or presence of 1 or 2 (final concentrations of the examined germacranolide in a range of 0.5–2.5 μM), at 37 °C with 5% CO2. The neutrophils were harvested after 24 h and centrifuged (2000 r.p.m., 10 min, 4 °C). The amount of released cytokines was measured by enzyme-linked immunosorbent assay (ELISA) following the manufacturer’s instructions (BD Biosciences, USA). The effects on IL-8, IL-1β, CCL2 and TNF-α production by the neutrophils were calculated by comparing the percentages of the released agents to the stimulated control without the tested compound.

[7] = tested on: CCL2 secretion by LPS-stimulated human neutrophils; assay: CCL2 release, ELISA; format: cell-based; details: 0.5, 1.0 and 2.5 µM, 24 h after LPS stimulation
Procedure: as §1, §2

[8] = tested on: IL-1β secretion by LPS-stimulated human neutrophils; assay: IL-1β release, ELISA; format: cell-based; details: 0.5, 1.0 and 2.5 µM, 24 h after LPS stimulation
Procedure: as §1, §2

[9] = tested on: U-2 OS; assay: MTT viability test, osteosarcoma cells with wild-type p53 status; details: Homo sapiens, U2OS
Procedure: as §6, §7, §8

[10] = tested on: MCF-7 cell line; parameters: method as in PMID 30127485; details: cited from earlier work
[11] = tested on: TNF-α secretion by LPS-stimulated human neutrophils; assay: TNF-α release, ELISA; format: cell-based
Procedure: as §1, §2

[12] = tested on: normal and cancer cell lines (prostate, skin, gastrointestinal panels); assay: LDH cytotoxicity, whole panel of normal and cancer cell lines; format: cell-based; details: Homo sapiens; 24 h treatment, cell density 1.5 × 10^4; doxorubicin: except PC3 cells; read-out: IC50 range over the cell lines
Procedure: Cytotoxic activity of 3 was tested on human cancer and normal cells, grouped in three panels: prostate, skin and gastrointestinal. The prostate panel comprised prostate cancer cell lines DU145 (ATCC HTB-81) and PC3 (ATCC CRL-1435) and prostate normal epithelial cells PNT2 (ECACC 95012613). Melanoma cell lines A375 (ATCC CRL-1619) and HTB140 (ATCC Hs 294T) together with human keratinocytes HaCaT (obtained as a kind gift of Prof. Marta Michalik, Department of Cell Biology, Jagiellonian University) were included in the skin panel. Two colon cancer cell lines, namely Caco-2 (ATCC HTB-37) and HT29 (ATCC HTB-38), constituted the gastrointestinal panel. […]
The examined compound (3) was diluted in the culture media from freshly made stock solution in MeOH (10 mg/mL) to the working concentrations (from 0 to 50 μg/mL). Cell viability was determined as described previously. […] Then, the culture medium was replaced with the medium containing different concentrations of the assessed compound (1–50 μg/mL). After 24 h of incubation, the viability of the cells was determined using colorimetric lactate dehydrogenase (LDH) assay in comparison to the controls to which corresponding aliquots of MeOH diluted with culture media were added. […] LDH released from the damaged cells into the cell culture medium was quantified by measuring the absorbance at 490 nm using a Synergy II Biotek microplate reader. […]

[13] = tested on: A375; assay: LDH cell viability assay, melanoma cells; format: cell-based; details: Homo sapiens, A-375; A375, 24 h, LDH assay; read-out: IC50
Procedure: (§3) Normal prostate epithelial cells (PNT2), two prostate cancer cell lines (Du145 and PC3), human keratinocytes (HaCaT), two melanoma cell lines (A375 and HTB140) and two colon cancer cell lines (HT29 and Caco-2) were treated with 3 at a concentration range 1.0–50.0 µg/mL. Viability of the cells was estimated using lactate dehydrogenase (LDH) assay.
(§4) Cytotoxic activity of 3 was tested on human cancer and normal cells, grouped in three panels: prostate, skin and gastrointestinal. The prostate panel comprised prostate cancer cell lines DU145 (ATCC HTB-81) and PC3 (ATCC CRL-1435) and prostate normal epithelial cells PNT2 (ECACC 95012613). Melanoma cell lines A375 (ATCC CRL-1619) and HTB140 (ATCC Hs 294T) together with human keratinocytes HaCaT (obtained as a kind gift of Prof. Marta Michalik, Department of Cell Biology, Jagiellonian University) were included in the skin panel. Two colon cancer cell lines, namely Caco-2 (ATCC HTB-37) and HT29 (ATCC HTB-38), constituted the gastrointestinal panel. Du145 cells were grown in a modified Eagle’s medium with low (1.0 g/L) glucose concentration; HT29, PC3 and PNT-2 cells were grown in Dulbecco’s modified Eagle’s medium (DMEM) and F12 HAM Nutrient Mixture; Caco-2 cells were grown in modified Eagle’s medium with nonessential amino acids (NEAA); and melanoma cells and keratinocytes were maintained in modified Eagle’s medium with high (4.5 g/L) glucose concentration. The culture media contained antibiotics and 10% fetal bovine serum (FBS). All cultures were maintained at 37 °C in a humidified, 5% CO2-containing atmosphere.
(§5) The examined compound (3) was diluted in the culture media from freshly made stock solution in MeOH (10 mg/mL) to the working concentrations (from 0 to 50 μg/mL). Cell viability was determined as described previously. […] Then, the culture medium was replaced with the medium containing different concentrations of the assessed compound (1–50 μg/mL). After 24 h of incubation, the viability of the cells was determined using colorimetric lactate dehydrogenase (LDH) assay in comparison to the controls to which corresponding aliquots of MeOH diluted with culture media were added. Cells grown in the medium without the tested compound were used as control I (negative), and the positive control (control II) was obtained by incubation of the cells in the medium containing 1% Triton X-100. LDH released from the damaged cells into the cell culture medium was quantified by measuring the absorbance at 490 nm using a Synergy II Biotek microplate reader. Cytotoxicities of the examined compounds were calculated as follows: ((absorbance of the tested sample−absorbance of control I)/(absorbance of control II−absorbance of control I)) × 100. Results were means of three independent measurements (± SD). Doxorubicin (Ebewe Pharma G.m.b.H., Unterach, Austria) was used as a reference cytostatic drug.

[14] = tested on: HTB140; assay: LDH cell viability assay, melanoma cells; format: cell-based; details: Homo sapiens; HTB140, 24 h, LDH assay; read-out: IC50
Procedure: as §3, §4, §5

[15] = tested on: PC3; assay: LDH cell viability assay, prostate cancer cells; format: cell-based; details: Homo sapiens, PC-3; PC3, 24 h, LDH assay; read-out: IC50
Procedure: as §3, §4, §5

[16] = tested on: HaCaT; assay: LDH cell viability assay, keratinocytes; format: cell-based, human; details: Homo sapiens, 24 h, LDH assay, read-out: IC50
Procedure: as §3, §4, §5

[17] = tested on: PC3 cells; parameters: method as in PMID 33968193; details: cited from earlier work
[18] = tested on: HepG2 cells; parameters: method as in PMID 35520265; details: cited from earlier work

2β,5-epoxy-5,10-dihydroxy-6α-angeloyloxy-9β-isobutyryloxy-germacran-8α,12-olide
IC50 [1]: > 7.9 µM | NF-κB inhibitory effect ([2]; concentration of 10 μM): NF-κB inhibitory effect was shown

C=C1C(=O)O[C@H]2[C@H]1[C@@H](O)[C@H](OC(=O)CC(C)C)[C@H](C)CCC(=O)[C@](C)(O)[C@@H]2OC(=O)/C(C)=C\C [Compound 2, 4β,8α-dihydroxy-5β-angeloyloxy-9β-(3-methylbutyryloxy)-3-oxo-germacran-6α,12-olide]
IC50 ([3]; SAOS-2, 24 h): 5.21 µM | IC50 ([3]; SAOS-2, 48 h): 3.57 µM | Cytotoxicity to PMNs (propidium iodide staining) [4]: nontoxic | ROS generation [5]: significantly and dose-dependently reduced ROS generation | IL-8 production upon LPS stimulation [6]: significant and dose-dependent inhibition | CCL2 production upon LPS stimulation [7]: significant and dose-dependent inhibition | IL-1β production upon LPS stimulation [8]: significant and dose-dependent inhibition | IC50 ([9]; 24 h): 3.18 µM | IC50 ([9]; 48 h): 2.52 µM

2α,5-epoxy-5,10-dihydroxy- 6α-angeloyloxy-9β-(3-methylbutyryloxy)-germacran-8α,12-olide
IC50 [1]: > 7.6 µM | NF-κB inhibitory effect ([2]; concentration range 1–10 μM): NF-κB inhibitory effect was shown

C=C1C(=O)O[C@H]2[C@H]1[C@@H](O)[C@H](OC(=O)C(C)CC)[C@H](C)CCC(=O)[C@](C)(O)[C@@H]2OC(=O)/C(C)=C\C (stereo partly drawn) [Compound 1, 4β,8α-dihydroxy-5β-angeloyloxy-9β-(2-methylbutyryloxy)-3-oxo-germacran-6α,12-olide]
IC50 ([3]; SAOS-2, 24 h): 9.11 µM | IC50 ([3]; SAOS-2, 48 h): 6.76 µM | Cytotoxicity to PMNs (propidium iodide staining) [4]: nontoxic | ROS generation [5]: significantly and dose-dependently reduced ROS generation | IL-8 production upon LPS stimulation [6]: significant and dose-dependent inhibition | Cytotoxicity [10]: resistant | TNF-α secretion ([11]; lowest concentration (0.5 μM)): could not be achieved | TNF-α release ([11]; only in the two higher concentrations (1.0 and 2.5 μM), 24 h after LPS stimulation): statistically significant reduction | CCL2 production upon LPS stimulation [7]: significant and dose-dependent inhibition | IL-1β production upon LPS stimulation [8]: significant and dose-dependent inhibition | IC50 ([9]; 24 h): 7.77 µM | IC50 ([9]; 48 h): 5.1 µM

COc1cccc2c1C(=O)c1c(O)c3c(c(O)c1C2=O)C[C@@](O)(C(=O)CO)C[C@@H]3O[C@H]1C[C@H](N)[C@H](O)[C@H](C)O1 [Doxorubicin, reference compound]
IC50 ([3]; SAOS-2, 24 h): 4.36 µM | IC50 ([3]; SAOS-2, 48 h): 0.08 µM | IC50 [12]: 1.1 to 10.5 µM | IC50 [13]: 0.59 ± 0.04 mg/L | IC50 [14]: > 5.71 mg/L | IC50 [15]: > 50 mg/L | IC50 ([9]; 24 h): 1.87 µM | IC50 ([9]; 48 h): 0.17 µM | IC50 [16]: > 4.68 mg/L

C=C1C(=O)O[C@H]2[C@H]1[C@@H](OC(=O)C(C)C)C(=O)[C@H](C)CCC[C@](C)(O)[C@@H]2OC(=O)C(C)C [incaspitolide A, Incaspitolide A]
Apoptosis induction [17]: appeared to induce apoptosis

Cardivarolide H
Apoptosis induction [18]: appeared to induce apoptosis
